Tests used:
[1] = system: human cardiomyocytes (HCMs); test: cell proliferation (72 h) of HCMs; assay type: cell-based; settings: HCM
Method: (§1) Data are analysed using a three-parameter non-linear regression curve or the operational model of receptor agonism. g, h Signalling bias plots were calculated as ∆Log(τ/KA) (g) or ∆∆Log(τ/KA) (h) for each agonist and for each signalling pathway. […] All data represent mean ± SEM for n repeats.
(§2) Both endothelial cell lines and HCMs were seeded at a density of 2500 cells/well in a clear flat bottom 96-well plate (Corning, UK) and incubated at 37 °C in 5% CO2. After 24 h, cells were exposed to test compounds or vehicle, in complete endothelial cell growth media (HUVECs) or myocyte growth media (HCMs). Cells were incubated for a further 72 h at 37 °C in 5% CO2. After 72 h incubation, 5 μl of Cell Counting Kit–8 (CCK-8, Sigma, UK) was added to each well and cells were then incubated for another 2 h at 37 °C in 5% CO2 and in the dark[61]. The absorbance of each well was measured using a Mithras LB940 microplate reader with an excitation of 450 nm. The absorbance is directly proportional to the number of viable cells. Cell proliferation was calculated as a percentage of number of cells treated with vehicle alone.
(§3) All sample sizes were determined, and data analysed, in accordance with the guidelines described by Curtis M et al.[65]. All experiments were appropriately controlled using ‘system pathway’ agonists. If any of these pathway controls generated inappropriate responses, then the entire data set was removed from analysis. […] Data analysis for cAMP accumulation, Ca^2+i mobilisation, NO accumulation, pERK1/2 activation, and cell proliferation assays were performed in GraphPad Prism 8.4 (GraphPad Software, San Diego). Data were fitted to obtain concentration–response curves using either the three-parameter logistic equation using to obtain values of Emax and pEC50 or the operational model of agonism. Statistical differences were analysed using one-way ANOVA followed by Dunnett’s post-hoc (for comparisons amongst more than two groups) or unpaired Student’s t test with Welch’s correction (for comparison between two groups). To account for the day-to-day variation experienced from the cultured cells, we used the maximal level of cAMP accumulation from cells in response to 100 μM forskolin stimulation was used as a reference, 10 μM ionomycin for Ca^2+i assays, 10 μM phorbol 12-myristate 13-acetate (PMA) for pERK1/2 activation, 10 μM acetylcholine for NO production and 10 μM VEGF for cell proliferation. […] Where appropriate the operational model for receptor agonism[27] was used to obtain efficacy (τ) and equilibrium disassociation constant (KA) values. In both cases, this normalisation removes the variation due to differences in days but retains the variance for control values. The means of individual experiments were combined to generate the curves shown. Having obtained values for τ and KA these were then used to quantify signalling bias as the change in Log(τ/KA)[19],[28]. Error for this composite measure was propagated by applying Eq. 1.1 PooledSEM=(SEMA)^2+(SEMB)^2 Where, SEMA and SEMB are the standard error of measurement A and B.

HUVECs = test: cell proliferation (72 h) of HUVECs; assay type: cell-based, human; settings: HUVEC
Method: as §1, with “g–h” for “g, h”, “Solid arrows indicate known pathways. Dashed arrows” for “All data”, “possible pathways.” for “mean ± SEM for n repeats.”
as §2, §3

[2] = target: T1, AM1 receptor (CLR-RAMP2) in HUAECs (Homo sapiens, UniProt O60895+Q16602); test: mobilisation of Ca2+i in HUAECs; assay type: cell-based
T1 construct: host or cells: primary HUAECs
T1 sequence (Q16602 23-461): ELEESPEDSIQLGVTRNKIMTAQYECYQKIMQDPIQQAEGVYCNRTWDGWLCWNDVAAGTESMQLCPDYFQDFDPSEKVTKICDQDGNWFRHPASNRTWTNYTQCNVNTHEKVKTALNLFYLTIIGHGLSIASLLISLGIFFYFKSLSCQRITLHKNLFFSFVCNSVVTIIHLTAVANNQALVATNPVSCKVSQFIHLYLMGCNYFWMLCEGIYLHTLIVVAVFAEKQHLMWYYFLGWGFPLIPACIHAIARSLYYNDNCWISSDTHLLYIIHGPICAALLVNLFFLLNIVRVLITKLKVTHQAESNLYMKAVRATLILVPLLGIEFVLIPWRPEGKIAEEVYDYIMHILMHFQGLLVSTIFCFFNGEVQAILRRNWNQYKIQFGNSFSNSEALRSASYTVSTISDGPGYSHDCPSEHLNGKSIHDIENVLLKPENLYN
T1 sequence (O60895 43-175): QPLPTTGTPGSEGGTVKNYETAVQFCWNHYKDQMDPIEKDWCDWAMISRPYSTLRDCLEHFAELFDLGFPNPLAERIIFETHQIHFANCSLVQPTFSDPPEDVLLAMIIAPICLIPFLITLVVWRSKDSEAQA
Method: All cell lines were plated at 20,000 cells/well on 96-well black clear-bottom plates (Costar, UK) 24 h before the experiment. […] Cells were then washed twice with calcium-free HBSS, then were left in 100 μl calcium-free HBSS for the duration of the assay. […] Data was normalised to the response seen with 10 μM Ionomycin.
as §3
(1 picture or pasted object on this page, not shown here)

[3] = target: T1, AM1 receptor (CLR-RAMP2) in HUAECs; test: ERK1/2 phosphorylation in HUAECs; assay type: cell-based
Method: Primary cells were grown in 6 well plates, on the day of the experiment media was replaced with serum free media 4 h prior to cell harvesting. Tyrpsin-EDTA was used to dissociate the cells and they were collected by centrifugation, counted and re-suspended HBSS/BSA (0.1%). Ligands were also diluted in HBSS/BSA. Cells were then plated on 384 well plates in 8 μl aliquots at a density of 20,000 cells/well. Next, ligands were added (4 μl) for 5 min stimulation at room temperature. Cells were then lysed as per to the manufacturer’s instructions with 4 μl of lysis buffer (Cisbio phosphor-ERK1/2 cellular assay kit, Invitrogen, UK) for 30 min shaking at room temperature. The 2 specific antibodies; were pre-mixed in a 1:1 ratio. 4 μl of this was added to each well and the plate incubated for a further 2 h.
as §3, with “B. […]” for “B.”

[4] = target: T2, AM1 receptor (CLR-RAMP2) in HUVECs (Homo sapiens, UniProt O60895+Q16602); test: signalling bias analysis (operational model) in HUVECs; settings: HUVEC; ΔΔLog(τ/KA), reference AM and cAMP
T2 construct: HUVECs specifically express the AM1 receptor alone; host or cells: primary HUVECs
T2 sequence (Q16602 23-461): as the sequence (Q16602 23-461) above
T2 sequence (O60895 43-175): as the sequence (O60895 43-175) above
Method: All sample sizes were determined, and data analysed, in accordance with the guidelines described by Curtis M et al.[65]. All experiments were appropriately controlled using ‘system pathway’ agonists. If any of these pathway controls generated inappropriate responses, then the entire data set was removed from analysis. […] Data analysis for cAMP accumulation, Ca^2+i mobilisation, NO accumulation, pERK1/2 activation, and cell proliferation assays were performed in GraphPad Prism 8.4 (GraphPad Software, San Diego). Data were fitted to obtain concentration–response curves using either the three-parameter logistic equation using to obtain values of Emax and pEC50 or the operational model of agonism. Statistical differences were analysed using one-way ANOVA followed by Dunnett’s post-hoc (for comparisons amongst more than two groups) or unpaired Student’s t test with Welch’s correction (for comparison between two groups). […] Having obtained values for τ and KA these were then used to quantify signalling bias as the change in Log(τ/KA)[19],[28]. […]

[5] = target: T3, CGRP receptor (CLR-RAMP1) in human cardiomyocytes (HCMs) (Homo sapiens, UniProt O60894+Q16602); test: total NO production in HCMs; assay type: cell-based; settings: HCM, 15 min, relative to 10 μM isoproterenol, mean ± SEM
T3 construct: primary human cardiomyocytes (HCMs) since these cells only expressed CLR and RAMP1; host or cells: primary human cardiomyocytes (HCMs)
T3 sequence (Q16602 23-461): as the sequence (Q16602 23-461) above
T3 sequence (O60894 27-148): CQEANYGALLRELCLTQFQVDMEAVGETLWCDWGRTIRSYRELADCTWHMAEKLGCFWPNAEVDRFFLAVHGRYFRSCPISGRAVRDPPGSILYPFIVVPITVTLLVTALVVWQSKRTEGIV
Method: as §1
Endothelial cells and HCMs were cultured as above. 24 h prior to assay cells were plated on Costar 96-well black clear bottom plates at 40,000 cells/well. The assay was performed according to the manufacturer’s protocol. Briefly, cells pre-incubated with NO dye and assay buffer 1 (Fluorometric Nitric Oxide Assay Kit, Abcam, UK) for 30 min at 37 °C in 5% CO2. […] Stain and ligand solution was removed, assay buffer II was added, and wells were read immediately. The absorbance was measured using a Tecan T200 (Thermo Fisher Scientific UK) reader with an excitation/emission of 540/590 nm. […]
All sample sizes were determined, and data analysed, in accordance with the guidelines described by Curtis M et al.[65]. […] Statistical differences were analysed using one-way ANOVA followed by Dunnett’s post-hoc (for comparisons amongst more than two groups) or unpaired Student’s t test with Welch’s correction (for comparison between two groups). […] Having obtained values for τ and KA these were then used to quantify signalling bias as the change in Log(τ/KA)[19],[28]. […]

[6] = proliferation, 72 h, CCK-8, mean ± SEM
[7] = proliferation, 72 h, mean ± SEM of 3-6 data sets
[8] = proliferation, operational model, mean ± SEM
[9] = Ca2+i, HUAEC, operational model, mean ± SEM
[10] = pERK1/2, HUAEC, operational model, mean ± SEM

Emax [5] [%]	Structure (SMILES)	Transducer coefficient Log(τ/KA) ([1]; Growth, calculated from Table S2)	Emax [1, 6] [%]	pEC50 [1, 7]	logτ [1, 8]	pKA [1, 8]	Transducer coefficient Log(τ/KA) (HUVECs; Growth, calculated from Table S1)	Emax (HUVECs; [6]) [%]	pEC50 (HUVECs; [7])	logτ (HUVECs; [8])	pKA (HUVECs; [8])	Emax [2] [%]	Transducer coefficient Log(τ/KA) ([2]; Ca2+i, HUAEC, calculated from Table S1)	logτ [2, 9]	pKA [2, 9]	Emax [3] [%]	Transducer coefficient Log(τ/KA) ([3]; pERK1/2, HUAEC, calculated from Table S1)	logτ [3, 10]	pKA [3, 10]	agonist bias [4]
–	CSCC[C@H](NC(=O)[C@H](CC(C)C)NC(=O)[C@H](CCC(N)=O)NC(=O)[C@H](Cc1c[nH]c2ccccc12)NC(=O)[C@H](CC(C)C)NC(=O)[C@H](CCCNC(=N)N)NC(=O)[C@H](Cc1c[nH]cn1)NC(=O)[C@H](CO)NC(=O)[C@H](CC(C)C)NC(=O)[C@H](CC(N)=O)NC(=O)[C@H](CCC(N)=O)NC(=O)[C@@H](NC(=O)[C@H](CCC(N)=O)NC(=O)[C@@H]1CSSC[C@H](NC(=O)CNC(=O)[C@@H](NC(=O)[C@H](CCCNC(=N)N)NC(=O)[C@H](CC(C)C)NC(=O)[C@H](CC(C)C)NC(=O)[C@H](CCC(N)=O)NC(=O)[C@H](C)NC(=O)[C@H](CCC(N)=O)NC(=O)[C@@H](N)[C@@H](C)O)C(C)C)C(=O)N[C@@H](C(C)C)C(=O)N[C@@H](CC(C)C)C(=O)NCC(=O)N[C@@H]([C@@H](C)O)C(=O)N1)C(C)C)C(=O)NCC(=O)N1CCC[C@H]1C(=O)N[C@@H](C)C(=O)NCC(=O)N[C@@H](CCCNC(=N)N)C(=O)N[C@@H](CCC(N)=O)C(=O)N[C@@H](CC(=O)O)C(=O)N[C@@H](CO)C(=O)N[C@@H](C)C(=O)N1CCC[C@H]1C(=O)N[C@H](C(=O)N[C@@H](CC(=O)O)C(=O)N1CCC[C@H]1C(=O)N[C@@H](CO)C(=O)N[C@@H](CO)C(=O)N1CCC[C@H]1C(=O)N[C@@H](Cc1c[nH]cn1)C(=O)N[C@@H](CO)C(=O)N[C@@H](Cc1ccc(O)cc1)C(N)=O)C(C)C [AM2, adrenomedullin 2]	5.78±0.60	114.68±3.58	6.48±0.58	-0.60±0.12	6.38±0.59	5.74±0.92	103.74±1.43	7.06±0.9	-1.29±0.20	7.03±0.90	50.1 ± 3.22	7.60±0.14	-0.01±0.05	7.61±0.13	17.6 ± 2.44	4.76±0.35	-0.67±0.12	5.43±0.33	biased towards Ca^2+i mobilisation and NO production
47 ± 5.85	CC[C@H](C)[C@H](NC(=O)[C@H](CCC(N)=O)NC(=O)[C@H](Cc1c[nH]cn1)NC(=O)[C@H](C)NC(=O)[C@H](CC(C)C)NC(=O)[C@H](CCCCN)NC(=O)[C@H](CCC(N)=O)NC(=O)[C@@H](NC(=O)[C@@H](NC(=O)[C@@H]1CSSC[C@H](NC(=O)CNC(=O)[C@H](Cc2ccccc2)NC(=O)[C@H](CO)NC(=O)[C@H](CCCNC(=N)N)NC(=O)[C@H](CC(C)C)NC(=O)CNC(=O)[C@H](CCC(N)=O)NC(=O)[C@H](Cc2ccccc2)NC(=O)[C@H](CC(N)=O)NC(=O)[C@H](CC(N)=O)NC(=O)[C@H](CCSC)NC(=O)[C@H](CO)NC(=O)[C@H](CCC(N)=O)NC(=O)[C@H](CCCNC(=N)N)NC(=O)[C@@H](N)Cc2ccc(O)cc2)C(=O)N[C@@H](CCCNC(=N)N)C(=O)N[C@@H](Cc2ccccc2)C(=O)NCC(=O)N[C@@H]([C@@H](C)O)C(=O)N1)[C@@H](C)O)C(C)C)C(=O)N[C@@H](Cc1ccc(O)cc1)C(=O)N[C@@H](CCC(N)=O)C(=O)N[C@@H](Cc1ccccc1)C(=O)N[C@H](C(=O)N[C@@H](CC(=O)O)C(=O)N[C@@H](CCCCN)C(=O)N[C@@H](CC(=O)O)C(=O)N[C@@H](CCCCN)C(=O)N[C@@H](CC(=O)O)C(=O)N[C@@H](CC(N)=O)C(=O)N[C@H](C(=O)N[C@@H](C)C(=O)N1CCC[C@H]1C(=O)N[C@@H](CCCNC(=N)N)C(=O)N[C@@H](CO)C(=O)N[C@@H](CCCCN)C(=O)N[C@H](C(=O)N[C@@H](CO)C(=O)N1CCC[C@H]1C(=O)N[C@@H](CCC(N)=O)C(=O)NCC(=O)N[C@@H](Cc1ccc(O)cc1)C(N)=O)[C@@H](C)CC)C(C)C)[C@@H](C)O [AM, adrenomedullin]	–	–	–	–	–	–	–	–	–	–	–	–	–	–	–	–	–	–	–
